From patent EP2628479A1, “Cosmetic use of climbazol” (Henkel AG&Co. KGAA, priority 2011, dated 2013)

Test system: Co-Kultur-System
Test: Collagen neosynthesis in co-culture system (2D fibroblast culture with 3D epidermis model insert), P1 NP secreted into the medium
Format: cell-based
Details: unbehandelt = 107
From the text: Zum Nachweis der Kollagen-Neusynthese wurde ein Co-Kultur-System verwendet, das aus einer zweidimensionalen Fibroblasten-Kultur besteht, auf die in einem Insert ein dreidimensionales Epidermismodell aufgesetzt wurde. Über das Nährmedium kann ein Stoffaustausch zwischen den Fibroblasten und den Keratinocyten des Epidermismodells erfolgen.
Als Kontrollen für die Syntheseinduktion wurden Retinsäure und Retinol eingesetzt.

SMILES: CC(C)(C)C(=O)C(Oc1ccc(Cl)cc1)n1ccnc1 (stereo not drawn) [Climbazol, Imidazolyl-1-(4-chlorophenoxy)-3,3-dimethylbutane-2-one]
- P1 NP (Climbazol 0,005%): 135 µg/mL

SMILES: CC1=C(/C=C/C(C)=C/C=C/C(C)=C/CO)C(C)(C)CCC1 [Retinol]
- P1 NP (Retinol 5µM): 146 µg/mL

SMILES: CC1=C(/C=C/C(C)=C/C=C/C(C)=C/C(=O)O)C(C)(C)CCC1 [Retinsäure]
- P1 NP (Retinsäure 5µM): 200 µg/mL
